Experimental data from paper PMC8143347, “Metabolism and Interspecies Variation of IMMH-010, a Programmed Cell Death Ligand 1 Inhibitor Prodrug” (Pharmaceutics, 2021).

Tests used:
[1] = IMMH-010 stability in rat plasma; assay type: in vitro ADME; conditions: 10 μM, 4 °C, 60 min
Experimental: (§1) IMMH-010 hydrolysis was investigated in human, monkey, rat, and mouse plasma. IMMH-010 (1 μM) was incubated in human, monkey, or […] plasma (0.2 mL) at 37 °C for 120 min. IMMH-010 (10 μM) was incubated in rat or mouse plasma (0.2 mL) at 4 °C for 60 min. The experiments were performed in triplicate. The reactions were initiated by the addition of IMMH-010 (10 μM). After incubation, the reactions were stopped by adding 2 volumes of ice-cold acetonitrile. After vortexing and centrifuging, the concentrations of IMMH-010 and YPD-29B in the supernatant were determined by liquid chromatography with tandem mass spectrometry (LC-MS/MS). The compound olmesartan (10 μM), a substrate of paraoxonase 1, was set as the positive control.

[2] = IMMH-010 stability in mouse plasma; assay type: in vitro ADME; conditions: 10 μM, 4 °C, 60 min
Experimental: as §1

[3] = Metabolism in rat liver S9 fractions; assay type: in vitro ADME
Experimental: IMMH-010 metabolism was compared in human, monkey, dog, and rat liver S9 homogenates. IMMH-010 (10 μM) was incubated with liver S9 homogenate protein (0.5 mg protein/mL) and a reduced nicotinamide adenine dinucleotide phosphate (NADPH) regenerating system in a final volume of 0.2 mL Tris-HCl buffer (50 mM, pH 7.4) containing 5 mM MgCl2. The reactions were performed in triplicate. After 2 min of preincubation at 37 °C, reactions were initiated by the addition of IMMH-010 (10 μM). The samples were collected 0, 5, 10, and 20 min after incubation, 2 volumes of acetonitrile were added to terminate the reaction. After vortexing and centrifugation, IMMH-010, YPD-29B, M3, and M4 in the supernatant were analyzed by LC-MS/MS.
(§2) All statistics were calculated using GraphPad Prism 8.0 software (San Diego, CA, USA) designed for one-way ANOVA. Pharmacokinetic parameters were calculated with a non-compartmental analysis using WinNonlin Version 6.3 (Pharsight, Mountain View, CA, USA). ADMET predictor V10.0 (Simulations Plus, Inc., Lancaster, CA, USA) and Microsoft Excel (Microsoft, Redmond, WA, USA) were used to process the data (i.e., half-life (t1/2) and hepatic clearance (CLhep) determination). Data were expressed as means ± standard deviations (SD). Results were considered statistically significant if the p-value <0.05, <0.01 and <0.001.

[4] = PK study in male cynomolgus monkeys; assay type: in vivo, cynomolgus monkey; conditions: cynomolgus monkey, plasma, single oral IMMH-010 maleate 5 mg/kg
Experimental: IMMH-010 maleate was suspended with 0.5% carboxymethyl cellulose to make a 1 mg/mL suspension for PO gavage. Four male cynomolgus monkeys received a single oral dose of IMMH-010 maleate (5 mg/kg). Serial blood samples were collected upto 48 h. The plasma was separated and the plasma concentrations of IMMH-010 and YPD-29B were determined by LC-MS/MS.
LC-MS/MS was performed using a triple quadrupole mass spectrometer (API 4000, AB Sciex, Framingham, MA, USA) with an ultra-performance liquid chromatography system (LC-30A, Shimadzu, Kyoto, Japan). Analyst 1.6.2 software (AB Sciex) was used for data acquisition and analysis. Mobile phase A was 1 mM ammonium acetate and mobile phase B was methanol. The mobile phase was delivered with the following gradient elution profile: 0–2.8 min, 70% B; 2.9 min, 85% B; 3 min, 90% B; 3.1–6.8 min, 100% B; 6.9–12 min, 70% B. The flow rate was 0.3 mL/min, and the column oven was maintained at 35 °C. The specific transitions monitored were 641.3 → 494.2 for IMMH-010, 597 → 155 for YPD-29B, 512 → 247 for M3, and 524 → 246 for M4.
as §2

CES1 = target: T1, CES1 (Homo sapiens, UniProt P23141); experiment: IMMH-010 hydrolysis by recombinant human CES1; assay type: in vitro ADME; design: purchased Cypex Ltd. (Dundee, United Kingdom); conditions: 10 μM, CES1 0.1 mg/mL, 15 min, 37 °C
T1 sequence (P23141 18-567): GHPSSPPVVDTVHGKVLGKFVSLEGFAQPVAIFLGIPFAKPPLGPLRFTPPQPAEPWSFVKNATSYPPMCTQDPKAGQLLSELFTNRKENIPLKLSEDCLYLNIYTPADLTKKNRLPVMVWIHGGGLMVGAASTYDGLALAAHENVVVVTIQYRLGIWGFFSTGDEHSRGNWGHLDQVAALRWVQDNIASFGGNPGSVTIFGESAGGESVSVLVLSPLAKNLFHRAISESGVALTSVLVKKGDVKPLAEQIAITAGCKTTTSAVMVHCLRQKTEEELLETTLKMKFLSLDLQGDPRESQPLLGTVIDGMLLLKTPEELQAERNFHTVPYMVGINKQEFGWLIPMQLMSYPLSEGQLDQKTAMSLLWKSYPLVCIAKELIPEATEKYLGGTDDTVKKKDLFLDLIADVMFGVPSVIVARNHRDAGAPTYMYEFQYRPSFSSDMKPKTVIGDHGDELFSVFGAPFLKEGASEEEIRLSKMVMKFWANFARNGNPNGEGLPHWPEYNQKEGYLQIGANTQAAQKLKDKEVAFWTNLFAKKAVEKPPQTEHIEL
Experimental: To verify the role of CES1, CES2, and AADAC in human metabolism of […]-010 (10 μM) was incubated individually with recombinant human CES1, CES2, and AADAC (0.1 mg protein/mL) at 37 °C for 15 min. Lidocaine (500 μM), CPT-11 (2 μM), and phenacetin (1 mM), which are substrates of CES1, CES2, and AADAC, were used as positive controls.

plasma stability [1]: decreased time-dependently
plasma stability [2]: decreased time-dependently
estimated CLhep ([3]; from rat liver S9): 58.4 mL/min/kg
half-life at 10 μM ([3]; pH 7.4, rat liver S9 0.5 mg protein/mL, 10 μM, NADPH): 7.1 min
AUC [4]: 47.9 ng·h/mL
Cmax [4]: 9.46 ng/mL
half-life ([4]; read-out: mean t1/2β in plasma (converted)): 5.16 h
Tmax ([4]; read-out: observed time to peak concentration): ≤ 1.5 h
remaining amount of IMMH-010 (CES1): 12.9%
Compound: CC(C)OC(=O)[C@H](CO)NCc1cc(Cl)c(OCc2cccc(-c3ccccc3)c2Br)cc1OCc1cccnc1 [IMMH-010]
